Our source for the IC50 values is ChEMBL document CHEMBL2417371, “Herbimycins D-F, ansamycin analogues from Streptomyces sp. RM-7-15” (J Nat Prod, 2013).

SMILES strings stand for the structures.

This experiment deals with A549. Kind of experiment: Cytotoxicity against human A549 cells after 2 days by AlamarBlue assay. As to conditions: A549, 48 h.

In general, IC50 refers to the concentration that gives 50% inhibition. A lower IC50 goes with greater potency. Turning to `COC1=C2C[C@@H](C)C[C@H](OC)[C@H](O)[C@@H](C)/C=C(\C)[C@H](OC(N)=O)[C@@H](OC)/C=C\C=C(/C)C(=O)NC(=CC1=O)C2=O` [GELDANAMYCIN], the IC50 came out at 150 nM.

`CO[C@H]1[C@@H](OC)C[C@H](C)[C@@H](OC)C2=CC(=O)C=C(NC(=O)/C(C)=C/C=C/[C@H](OC)[C@@H](OC(N)=O)/C(C)=C/[C@@H]1C)C2=O` [HERBIMYCIN] displayed a concentration for half-maximal inhibition (IC50) of 150 nM.
